We go through one compound from article PMC6197228, “Inhibition of TBK1/IKKε Promotes Regeneration of Pancreatic β-cells” (Scientific Reports, 2018).

Molecules are shown by their SMILES.

Holding throughout (type): biochemical
One experiment addresses T1, IKKβ (Homo sapiens, UniProt O14920).
T1 construct: gene IKBKB
T1 sequence (O14920 1-756): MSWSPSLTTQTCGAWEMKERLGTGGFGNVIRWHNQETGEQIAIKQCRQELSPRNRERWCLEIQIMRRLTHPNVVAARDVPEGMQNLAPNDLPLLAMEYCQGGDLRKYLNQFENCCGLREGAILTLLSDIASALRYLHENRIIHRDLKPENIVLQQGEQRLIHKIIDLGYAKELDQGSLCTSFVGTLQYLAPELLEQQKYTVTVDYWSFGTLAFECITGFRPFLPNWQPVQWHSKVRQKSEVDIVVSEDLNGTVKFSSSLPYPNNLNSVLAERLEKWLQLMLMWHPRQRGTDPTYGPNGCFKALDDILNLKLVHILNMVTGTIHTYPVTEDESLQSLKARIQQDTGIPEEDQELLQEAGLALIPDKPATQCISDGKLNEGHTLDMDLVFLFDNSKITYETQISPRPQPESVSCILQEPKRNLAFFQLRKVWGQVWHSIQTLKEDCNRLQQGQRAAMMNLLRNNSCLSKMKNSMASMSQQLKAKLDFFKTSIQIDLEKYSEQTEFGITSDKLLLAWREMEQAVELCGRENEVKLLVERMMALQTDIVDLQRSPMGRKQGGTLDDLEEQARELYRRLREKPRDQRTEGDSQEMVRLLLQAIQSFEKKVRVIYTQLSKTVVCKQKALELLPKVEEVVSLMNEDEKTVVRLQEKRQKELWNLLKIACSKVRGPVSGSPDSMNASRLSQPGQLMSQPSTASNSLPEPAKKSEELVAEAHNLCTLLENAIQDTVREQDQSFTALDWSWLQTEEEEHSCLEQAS
Kind of experiment: kinase profiling, dose response IC50 (selectivity).

For experiment [1], the target named is T2, TANK-binding kinase 1 (TBK1) (Homo sapiens, UniProt Q9UHD2).
T2 sequence (Q9UHD2 1-729): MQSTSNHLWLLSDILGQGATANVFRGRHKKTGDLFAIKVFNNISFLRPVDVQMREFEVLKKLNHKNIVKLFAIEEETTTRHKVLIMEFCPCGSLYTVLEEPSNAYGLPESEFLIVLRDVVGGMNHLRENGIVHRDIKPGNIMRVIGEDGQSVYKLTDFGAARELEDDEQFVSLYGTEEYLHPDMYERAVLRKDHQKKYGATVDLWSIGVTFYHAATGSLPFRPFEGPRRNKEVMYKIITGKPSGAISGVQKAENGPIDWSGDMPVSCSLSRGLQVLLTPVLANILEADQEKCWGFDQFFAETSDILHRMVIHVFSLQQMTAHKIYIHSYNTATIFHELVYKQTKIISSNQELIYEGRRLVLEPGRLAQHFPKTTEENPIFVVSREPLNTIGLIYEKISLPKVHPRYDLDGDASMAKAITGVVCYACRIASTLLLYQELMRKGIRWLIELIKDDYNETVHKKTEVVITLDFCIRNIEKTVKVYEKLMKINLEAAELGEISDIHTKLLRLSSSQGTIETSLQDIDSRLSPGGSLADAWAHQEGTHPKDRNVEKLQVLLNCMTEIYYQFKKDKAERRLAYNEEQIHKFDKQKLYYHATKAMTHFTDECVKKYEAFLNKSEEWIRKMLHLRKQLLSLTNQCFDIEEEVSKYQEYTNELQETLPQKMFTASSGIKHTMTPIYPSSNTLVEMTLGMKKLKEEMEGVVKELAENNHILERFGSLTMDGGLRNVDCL
As to the kind of experiment: kinase profiling, dose response IC50.

The next experiment addresses T3, IKKα (Homo sapiens, UniProt O15111).
T3 construct: gene CHUK
T3 sequence (O15111 1-745): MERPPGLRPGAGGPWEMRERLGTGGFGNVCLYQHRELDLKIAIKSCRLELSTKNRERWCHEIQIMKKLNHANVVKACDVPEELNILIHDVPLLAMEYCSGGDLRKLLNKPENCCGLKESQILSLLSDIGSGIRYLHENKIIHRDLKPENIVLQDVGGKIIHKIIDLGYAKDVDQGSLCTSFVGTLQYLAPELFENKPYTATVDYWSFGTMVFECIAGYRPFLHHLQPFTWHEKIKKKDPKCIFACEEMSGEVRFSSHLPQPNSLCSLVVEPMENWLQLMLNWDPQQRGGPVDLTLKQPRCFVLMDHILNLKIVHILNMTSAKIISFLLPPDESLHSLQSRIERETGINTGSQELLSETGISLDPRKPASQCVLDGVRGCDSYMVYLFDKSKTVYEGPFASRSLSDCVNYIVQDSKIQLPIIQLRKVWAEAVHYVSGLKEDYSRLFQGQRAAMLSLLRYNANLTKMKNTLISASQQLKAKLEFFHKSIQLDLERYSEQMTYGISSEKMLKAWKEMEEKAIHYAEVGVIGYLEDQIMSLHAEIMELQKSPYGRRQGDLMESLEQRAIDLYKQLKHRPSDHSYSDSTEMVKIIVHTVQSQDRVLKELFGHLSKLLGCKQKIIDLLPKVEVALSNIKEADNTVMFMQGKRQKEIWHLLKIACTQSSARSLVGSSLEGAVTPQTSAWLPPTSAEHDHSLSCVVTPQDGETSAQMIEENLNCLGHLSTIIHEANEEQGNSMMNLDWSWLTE
Kind of experiment: kinase profiling, dose response IC50 (selectivity).

The next experiment deals with T4, IκB kinase ε (IKKε) (Homo sapiens, UniProt Q14164).
T4 construct: gene IKBKE
T4 sequence (Q14164 1-716): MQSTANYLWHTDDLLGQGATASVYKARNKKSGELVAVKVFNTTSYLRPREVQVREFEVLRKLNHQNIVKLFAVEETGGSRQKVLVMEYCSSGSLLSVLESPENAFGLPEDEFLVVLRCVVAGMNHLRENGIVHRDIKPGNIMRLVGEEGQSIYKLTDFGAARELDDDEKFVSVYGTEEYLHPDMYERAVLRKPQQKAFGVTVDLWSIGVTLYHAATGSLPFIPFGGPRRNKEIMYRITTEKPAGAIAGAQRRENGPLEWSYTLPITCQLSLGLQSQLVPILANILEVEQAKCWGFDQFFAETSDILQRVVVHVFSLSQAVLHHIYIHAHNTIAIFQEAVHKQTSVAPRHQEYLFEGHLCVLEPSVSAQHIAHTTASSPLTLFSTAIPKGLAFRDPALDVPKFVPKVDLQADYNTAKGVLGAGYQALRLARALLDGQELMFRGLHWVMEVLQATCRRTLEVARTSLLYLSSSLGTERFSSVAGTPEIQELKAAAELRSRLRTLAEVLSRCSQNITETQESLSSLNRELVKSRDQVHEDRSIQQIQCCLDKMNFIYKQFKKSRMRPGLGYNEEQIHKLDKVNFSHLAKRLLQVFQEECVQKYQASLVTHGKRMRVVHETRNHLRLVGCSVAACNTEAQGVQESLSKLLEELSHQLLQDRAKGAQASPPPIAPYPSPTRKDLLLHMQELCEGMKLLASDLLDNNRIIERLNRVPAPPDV
As to the kind of experiment: kinase profiling, dose response IC50.

By IC50 is commonly meant the concentration at which inhibition is half-maximal. A higher IC50 goes with a need for much substance. Consider `O=C(O)/C=C/c1ccc2noc(-c3ccccc3)c2c1` [PIAA, (E)-3-(3-phenylbenzo[c]isoxazol-5-yl)acrylic acid], for which the concentration for half-maximal inhibition (IC50) against IKKβ was 50.5 µM; in experiment [1] it was 0.4 µM; against IKKα it was 47.2 µM; on IκB kinase ε (IKKε), roughly 1.07 µM.
